Experimental data published in ChEMBL document CHEMBL3217532, “New analyses of MIC90 data to aid antibacterial drug discovery” (2011).
In brackets after ≈: the same amount, converted by molar mass. Values belong to the compound of their own block, whether it stands above or below them.

Key:
Type in all cases: functional
[1] = system: Pseudomonas aeruginosa; test: Antimicrobial activity against Pseudomonas aeruginosa PA-4624
[2] = system: Pseudomonas aeruginosa; test: Antimicrobial activity against Pseudomonas aeruginosa PA-4991
[3] = system: Pseudomonas aeruginosa; test: Antimicrobial activity against Pseudomonas aeruginosa 1954-00
[4] = system: Pseudomonas aeruginosa; test: Antimicrobial activity against Pseudomonas aeruginosa 1619-08
[5] = system: Pseudomonas aeruginosa; test: Antimicrobial activity against Pseudomonas aeruginosa PA-4997
[6] = system: Pseudomonas aeruginosa; test: Antimicrobial activity against Pseudomonas aeruginosa 1527-08
[7] = system: Pseudomonas aeruginosa; test: Antimicrobial activity against Pseudomonas aeruginosa 1569-05
[8] = system: Pseudomonas aeruginosa; test: Antimicrobial activity against Pseudomonas aeruginosa PA-4990
[9] = system: Pseudomonas aeruginosa; test: Antimicrobial activity against Pseudomonas aeruginosa 1752-00
[10] = system: Pseudomonas aeruginosa; test: Antimicrobial activity against Pseudomonas aeruginosa 1515-08
[11] = system: Pseudomonas aeruginosa; test: Antimicrobial activity against Pseudomonas aeruginosa 1764-00
[12] = system: Pseudomonas aeruginosa; test: Antimicrobial activity against Pseudomonas aeruginosa 1955-00
[13] = system: Pseudomonas aeruginosa; test: Antimicrobial activity against Pseudomonas aeruginosa PA-75
[14] = system: Pseudomonas aeruginosa; test: Antimicrobial activity against Pseudomonas aeruginosa 1563-00
[15] = system: Pseudomonas aeruginosa; test: Antimicrobial activity against Pseudomonas aeruginosa 1951-00
[16] = system: Pseudomonas aeruginosa; test: Antimicrobial activity against Pseudomonas aeruginosa 1953-00
[17] = system: Pseudomonas aeruginosa; test: Antimicrobial activity against Pseudomonas aeruginosa 1509-08
[18] = system: Pseudomonas aeruginosa; test: Antimicrobial activity against Pseudomonas aeruginosa 1512-08
[19] = system: Pseudomonas aeruginosa; test: Antimicrobial activity against Pseudomonas aeruginosa 1568-05
[20] = system: Pseudomonas aeruginosa; test: Antimicrobial activity against Pseudomonas aeruginosa 1565-05
[21] = system: Pseudomonas aeruginosa; test: Antimicrobial activity against Pseudomonas aeruginosa 1510-08
[22] = system: Pseudomonas aeruginosa; test: Antimicrobial activity against Pseudomonas aeruginosa 1753-00
[23] = system: Pseudomonas aeruginosa; test: Antimicrobial activity against Pseudomonas aeruginosa PA-4995
[24] = system: Pseudomonas aeruginosa; test: Antimicrobial activity against Pseudomonas aeruginosa 1513-08
[25] = system: Pseudomonas aeruginosa; test: Antimicrobial activity against Pseudomonas aeruginosa 1613-09
[26] = system: Pseudomonas aeruginosa; test: Antimicrobial activity against Pseudomonas aeruginosa 1952-00
[27] = system: Pseudomonas aeruginosa; test: Antimicrobial activity against Pseudomonas aeruginosa 1612-09
[28] = system: Pseudomonas aeruginosa; test: Antimicrobial activity against Pseudomonas aeruginosa 1765-00
[29] = system: Pseudomonas aeruginosa; test: Antimicrobial activity against Pseudomonas aeruginosa 1760-00
[30] = system: Pseudomonas aeruginosa; test: Antimicrobial activity against Pseudomonas aeruginosa 1957-00
[31] = system: Pseudomonas aeruginosa; test: Antimicrobial activity against Pseudomonas aeruginosa 1567-05
[32] = system: Pseudomonas aeruginosa; test: Antimicrobial activity against Pseudomonas aeruginosa 1766-00
[33] = system: Pseudomonas aeruginosa; test: Antimicrobial activity against Pseudomonas aeruginosa 1514-08
[34] = system: Pseudomonas aeruginosa; test: Antimicrobial activity against Pseudomonas aeruginosa 1561-05
[35] = system: Pseudomonas aeruginosa; test: Antimicrobial activity against Pseudomonas aeruginosa 1564-05
[36] = system: Pseudomonas aeruginosa; test: Antimicrobial activity against Pseudomonas aeruginosa 1761-00
[37] = system: Pseudomonas aeruginosa; test: Antimicrobial activity against Pseudomonas aeruginosa PA-4999
[38] = system: Pseudomonas aeruginosa; test: Antimicrobial activity against Pseudomonas aeruginosa 1614-09
[39] = system: Pseudomonas aeruginosa; test: Antimicrobial activity against Pseudomonas aeruginosa 1956-00
[40] = system: Pseudomonas aeruginosa; test: Antimicrobial activity against Pseudomonas aeruginosa 1566-05
[41] = system: Pseudomonas aeruginosa; test: Antimicrobial activity against Pseudomonas aeruginosa 1521-08
[42] = system: Pseudomonas aeruginosa; test: Antimicrobial activity against Pseudomonas aeruginosa 1615-09
[43] = system: Pseudomonas aeruginosa; test: Antimicrobial activity against Pseudomonas aeruginosa 1767-00
[44] = system: Pseudomonas aeruginosa; test: Antimicrobial activity against Pseudomonas aeruginosa 1611-09
[45] = system: Pseudomonas aeruginosa; test: Antimicrobial activity against Pseudomonas aeruginosa 1570-05
[46] = system: Pseudomonas aeruginosa; test: Antimicrobial activity against Pseudomonas aeruginosa 1562-05
[47] = system: Pseudomonas aeruginosa; test: Antimicrobial activity against Pseudomonas aeruginosa 1523-08
[48] = system: Pseudomonas aeruginosa; test: Antimicrobial activity against Pseudomonas aeruginosa PA-4993
[49] = system: Pseudomonas aeruginosa; test: Antimicrobial activity against Pseudomonas aeruginosa 1768-00
[50] = system: Pseudomonas aeruginosa; test: Antimicrobial activity against Pseudomonas aeruginosa PA-1757
[51] = system: Pseudomonas aeruginosa; test: Antimicrobial activity against Pseudomonas aeruginosa 1526-08

MIC90 [1]: 1 µg/mL (≈ 1.5 µM) | MIC90 [2]: 0.5 µg/mL (≈ 0.748 µM) | MIC90 [3]: 0.06 µg/mL (≈ 0.0897 µM) | MIC90 [4]: 0.03 µg/mL (≈ 0.0449 µM) | MIC90 [5]: 0.5 µg/mL (≈ 0.748 µM) | MIC90 [6]: 0.5 µg/mL (≈ 0.748 µM) | MIC90 [7]: 0.5 µg/mL (≈ 0.748 µM) | MIC90 [8]: 0.5 µg/mL (≈ 0.748 µM) | MIC90 [9]: 0.5 µg/mL (≈ 0.748 µM) | MIC90 [10]: 0.5 µg/mL (≈ 0.748 µM) | MIC90 [11]: 0.25 µg/mL (≈ 0.374 µM) | MIC90 [12]: 0.25 µg/mL (≈ 0.374 µM) | MIC90 [13]: 0.5 µg/mL (≈ 0.748 µM) | MIC90 [14]: 0.25 µg/mL (≈ 0.374 µM) | MIC90 [15]: 0.5 µg/mL (≈ 0.748 µM) | MIC90 [16]: 0.25 µg/mL (≈ 0.374 µM) | MIC90 [17]: 4 µg/mL (≈ 5.98 µM) | MIC90 [18]: 0.5 µg/mL (≈ 0.748 µM) | MIC90 [19]: 0.5 µg/mL (≈ 0.748 µM) | MIC90 [20]: 0.25 µg/mL (≈ 0.374 µM) | MIC90 [21]: 8 µg/mL (≈ 12 µM) | MIC90 [22]: 0.5 µg/mL (≈ 0.748 µM) | MIC90 [23]: 0.125 µg/mL (≈ 0.187 µM) | MIC90 [24]: 1 µg/mL (≈ 1.5 µM) | MIC90 [25]: 0.125 µg/mL (≈ 0.187 µM) | MIC90 [26]: 0.25 µg/mL (≈ 0.374 µM) | MIC90 [27]: 1 µg/mL (≈ 1.5 µM) | MIC90 [28]: 1 µg/mL (≈ 1.5 µM) | MIC90 [29]: 0.5 µg/mL (≈ 0.748 µM) | MIC90 [30]: 0.125 µg/mL (≈ 0.187 µM) | MIC90 [31]: 0.25 µg/mL (≈ 0.374 µM) | MIC90 [32]: 0.5 µg/mL (≈ 0.748 µM) | MIC90 [33]: 1 µg/mL (≈ 1.5 µM) | MIC90 [34]: 1 µg/mL (≈ 1.5 µM) | MIC90 [35]: 0.125 µg/mL (≈ 0.187 µM) | MIC90 [36]: 1 µg/mL (≈ 1.5 µM) | MIC90 [37]: 0.5 µg/mL (≈ 0.748 µM) | MIC90 [38]: 0.25 µg/mL (≈ 0.374 µM) | MIC90 [39]: 0.125 µg/mL (≈ 0.187 µM) | MIC90 [40]: 0.25 µg/mL (≈ 0.374 µM) | MIC90 [41]: 1 µg/mL (≈ 1.5 µM) | MIC90 [42]: 0.25 µg/mL (≈ 0.374 µM) | MIC90 [43]: 0.25 µg/mL (≈ 0.374 µM) | MIC90 [44]: 0.125 µg/mL (≈ 0.187 µM) | MIC90 [45]: 0.125 µg/mL (≈ 0.187 µM) | MIC90 [46]: 0.25 µg/mL (≈ 0.374 µM) | MIC90 [47]: 0.5 µg/mL (≈ 0.748 µM) | MIC90 [48]: 0.125 µg/mL (≈ 0.187 µM) | MIC90 [49]: 0.125 µg/mL (≈ 0.187 µM) | MIC90 [50]: 8 µg/mL (≈ 12 µM) | MIC90 [51]: 0.25 µg/mL (≈ 0.374 µM)
Compound: C[C@H]1[C@H](NC(=O)/C(=N\OC(C)(C)C(=O)O)c2csc(N)n2)C(=O)N1C(=O)NS(=O)(=O)n1nc(-c2cc(=O)c(O)c[nH]2)n(C)c1=O

Compound: CC(C)(O/N=C(\C(=O)N[C@H]1CN(C(=O)NS(=O)(=O)n2nc(-c3cc(=O)c(O)c[nH]3)n(C[C@@H](O)CO)c2=O)C1=O)c1csc(N)n1)C(=O)O
MIC90 [1]: 0.25 µg/mL (≈ 0.35 µM) | MIC90 [2]: 0.25 µg/mL (≈ 0.35 µM) | MIC90 [3]: 0.06 µg/mL (≈ 0.084 µM) | MIC90 [4]: 0.06 µg/mL (≈ 0.084 µM) | MIC90 [5]: 0.25 µg/mL (≈ 0.35 µM) | MIC90 [6]: 0.25 µg/mL (≈ 0.35 µM) | MIC90 [7]: 0.25 µg/mL (≈ 0.35 µM) | MIC90 [8]: 0.125 µg/mL (≈ 0.175 µM) | MIC90 [9]: 0.5 µg/mL (≈ 0.7 µM) | MIC90 [10]: 0.25 µg/mL (≈ 0.35 µM) | MIC90 [11]: 0.125 µg/mL (≈ 0.175 µM) | MIC90 [12]: 0.125 µg/mL (≈ 0.175 µM) | MIC90 [13]: 0.25 µg/mL (≈ 0.35 µM) | MIC90 [14]: 0.125 µg/mL (≈ 0.175 µM) | MIC90 [15]: 0.25 µg/mL (≈ 0.35 µM) | MIC90 [16]: 0.5 µg/mL (≈ 0.7 µM) | MIC90 [17]: 2 µg/mL (≈ 2.8 µM) | MIC90 [18]: 0.25 µg/mL (≈ 0.35 µM) | MIC90 [19]: 0.25 µg/mL (≈ 0.35 µM) | MIC90 [20]: 0.125 µg/mL (≈ 0.175 µM) | MIC90 [21]: 8 µg/mL (≈ 11.2 µM) | MIC90 [22]: 0.25 µg/mL (≈ 0.35 µM) | MIC90 [23]: 0.125 µg/mL (≈ 0.175 µM) | MIC90 [24]: 0.5 µg/mL (≈ 0.7 µM) | MIC90 [25]: 0.5 µg/mL (≈ 0.7 µM) | MIC90 [26]: 0.125 µg/mL (≈ 0.175 µM) | MIC90 [27]: 0.5 µg/mL (≈ 0.7 µM) | MIC90 [28]: 0.5 µg/mL (≈ 0.7 µM) | MIC90 [29]: 0.25 µg/mL (≈ 0.35 µM) | MIC90 [30]: 0.06 µg/mL (≈ 0.084 µM) | MIC90 [31]: 0.125 µg/mL (≈ 0.175 µM) | MIC90 [32]: 16 µg/mL (≈ 22.4 µM) | MIC90 [33]: 0.5 µg/mL (≈ 0.7 µM) | MIC90 [34]: 1 µg/mL (≈ 1.4 µM) | MIC90 [35]: 0.125 µg/mL (≈ 0.175 µM) | MIC90 [36]: 1 µg/mL (≈ 1.4 µM) | MIC90 [37]: 0.25 µg/mL (≈ 0.35 µM) | MIC90 [38]: 0.25 µg/mL (≈ 0.35 µM) | MIC90 [39]: 0.06 µg/mL (≈ 0.084 µM) | MIC90 [40]: 0.125 µg/mL (≈ 0.175 µM) | MIC90 [41]: 0.5 µg/mL (≈ 0.7 µM) | MIC90 [42]: 0.25 µg/mL (≈ 0.35 µM) | MIC90 [43]: 0.125 µg/mL (≈ 0.175 µM) | MIC90 [44]: 0.125 µg/mL (≈ 0.175 µM) | MIC90 [45]: 0.125 µg/mL (≈ 0.175 µM) | MIC90 [46]: 0.125 µg/mL (≈ 0.175 µM) | MIC90 [47]: 0.25 µg/mL (≈ 0.35 µM) | MIC90 [48]: 0.125 µg/mL (≈ 0.175 µM) | MIC90 [49]: 0.06 µg/mL (≈ 0.084 µM) | MIC90 [50]: 8 µg/mL (≈ 11.2 µM) | MIC90 [51]: 0.5 µg/mL (≈ 0.7 µM)
